{
  "source": "patent US12133900B2",
  "about": "“Synthesis and composition of amino acid linking groups conjugated to compounds used for the targeted imaging of tumors” (Purdue Research Foundation, priority 2013, dated 2024)",
  "origin": "cited, not measured here",
  "key": {"[1]": {"system": "malignant lesions in human ovarian cancer patients", "details": "intra-operative; cited from earlier work"}, "[2]": {"details": "instability of the thiourea bridge; cited from earlier work"}},
  "data": [
    {"smiles": "Nc1nc2ncc(CNc3ccc(C(=O)NC(CCC(=O)NCCNC(=S)Nc4ccc(-c5c6ccc(=O)cc-6oc6cc(O)ccc56)c(C(=O)O)c4)C(=O)O)cc3)nc2c(=O)[nH]1", "note": "(stereo not drawn) [EC17, folate-ethelenediamine-fluorescein isothiocynate]", "values": [
      {"measurement": "more malignant lesions removed with the dye than without it", "setting": "[1]", "result": "~5", "unit": "×"},
      {"measurement": "pathology of resected fluorescent lesions", "setting": "[1]", "result": "confirmed by pathology to be malignant"},
      {"measurement": "shelf-life stability", "setting": "[2]", "result": "easily decomposes"}
    ]}
  ]
}
